US7754686B2, “Stabilized FGF formulations containing reducing agents” (Novartis Vaccines and Diagnostics, Inc., priority 2000, dated 2010)

Tests used:
[1] = Storage stability of liquid FGF-2 formulations by RP-HPLC (% main peak); assay type: physicochemical; conditions: 0-10 mM DTT, FIGS. 1-3
Description: Reversed Phase HPLC (RP-HPLC) was performed using a Waters 600S controller and a Waters 717 autosampler. Separations were accomplished on a Zorbax 300SB-CN, 4.6 mm ID×15 cm, 5:, cyano column with sample detection at 214 nm on a Waters 486 UV detector. Samples were run at 1.0 mL/min and injection volumes were 50 μL (˜15 μg of protein per injection). […] Much of FGF-2 instability in pharmaceutical formulations can be attributed to oxidation. The stability of FGF-2 in different formulations can be quantitated by measuring the retention of the main peak using RP-HPLC. This main peak corresponds to the FGF-2 that remains in the reduced form. Using the analytical procedures described herein, the storage stability of FGF-2 under several conditions was followed by monitoring changes in the RP-HPLC main peak as a function of storage time at 4° C., 17° C., and 30° C. Experiments were conducted to determine the appropriate levels of dithiothreitol (DTT) required for maximum stability of FGF-2 formulations. Concentrations of DTT from 0 to 10 mM were examined in formulations between pH 5.5 and pH 6.5. In this example, all formulations were liquids and were produced from the same lot of bulk drug. Formulations were stored at 4° C., 17° C., and 30° C. […] Stability of the formulations was assessed by a number of assays. […]

[2] = Storage stability of lyophilized FGF-2 formulations by RP-HPLC (% main peak); assay type: physicochemical; conditions: 0.35 and 3.5 mg/ml, 10 mM DTT, pH 6.0, storage at 30° C. for 1 year, FIG. 7
Description: Reversed Phase HPLC (RP-HPLC) was performed using a Waters 600S controller and a Waters 717 autosampler. Separations were accomplished on a Zorbax 300SB-CN, 4.6 mm ID×15 cm, 5:, cyano column with sample detection at 214 nm on a Waters 486 UV detector. Samples were run at 1.0 mL/min and injection volumes were 50 μL (˜15 μg of protein per injection).
rhFGF-2 was lyophilized using the following cycle: Vials were placed on pre-cool shelves set at 10° C. The shelf temperature was ramped at 40° C./hour to −50° C. where the vials were frozen for 2 hours. The temperature of the shelves was then ramped at 40° C. per hour to −25° C. and held for 2 hours to crystallize the glycine in the formulation. A vacuum of 50 μm was then initiated, and primary drying was accomplished over 32 hours. After primary drying was complete, the shelf temperature was ramped at 25° C./hour to 40° C. for 8 hours. The temperature was then reduced to 4° C. and the vials were stoppered and capped.
FGF-2 stability was examined in both liquid and lyophilized (freeze-dried) formulations using RP-HPLC. As in the previous study, liquid formulations were stored at 4° C., 17° C., and 30° C.
Lyophilized formulations were stored at 40° C. and 50° C. […]
Lyophilized formulations were stored for 12 months at 4° C., 25° C. and 30° C. Stability was monitored with a number of stability indicating assays. […]

| Compound | protection of FGF-2 from oxidation [1] | degradation (RP-HPLC main peak) [2] |
| --- | --- | --- |
| O[C@H](CS)[C@H](O)CS (racemic) [DTT, dithiothreitol] | protects FGF-2 from oxidation in a concentration-dependent manner | – |
| rhFGF-2: recombinant human FGF-2 having the sequence set forth in SEQ ID NO:1 | – | little (if any) detectable degradation |
